Reference: patent publication US6706663B2, “Herbicidal 3-heterocyclic substituted benzisothiazole and benzisoxazole compounds” (Wyeth, priority 2000, dated 2004)

Experiments:
[1] = system: IPOHE (Ipomoea hederacea); assay: Postemergence herbicidal evaluation; format: in vivo, (L.) Jacq.; settings: for IPOHE herbicidal rating: postemergence
Outline: (§1)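 Seedlings grown about two weeks in flats, sprayed, then kept under standard greenhouse care. Rated visually 4–5 weeks after treatment on a 0–9 scale (stand, vigour, malformation, size, chlorosis, overall appearance) relative to untreated control; repeat tests averaged.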

[2] = system: CHEAL (Chenopodium album); assay: Postemergence herbicidal evaluation; format: in vivo, L.; settings: for CHEAL herbicidal rating: postemergence
Outline: as §1

[3] = system: CASOB (Cassia obtusifolia); assay: Postemergence herbicidal evaluation; format: in vivo, L.; settings: for CASOB herbicidal rating: postemergence
Outline: as §1

[4] = system: AMBEL (Ambrosia artemisifolia); assay: Postemergence herbicidal evaluation; format: in vivo, L.; settings: for AMBEL herbicidal rating: postemergence
Outline: as §1

ORYSAT (Rice, Tebonnet) [5] = assay: Postemergence herbicidal evaluation; format: in vivo, Oryza sativa, (L.) Tebonnet; settings: for ORYSAT herbicidal rating: postemergence
Outline: as §1

[6] = system: GLXMAW (Soybean, Williams); assay: Preemergence herbicidal evaluation; format: in vivo, Glycine max, (L.) Merr. cv Williams; settings: rated 4-5 weeks after treatment
[7] = system: MOOVA (Monochoria vaginalis); assay: Flooded paddy, preemergence weed control; format: in vivo, Presl.; settings: rated 3-4 weeks after treatment, 0-9 rating scale
Outline: (§2)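 Visual 0-9 rating versus control, scoring stand, vigor, malformation, size, chlorosis and overall appearance. Silt loam soil, propagules in top 0.5 cm; flood depth 1.5–3 cm held for the whole test; greenhouse.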

[8] = system: TRZAWR (Wheat, Winter, cv Riband); assay: Preemergence herbicidal evaluation; format: in vivo, Triticum aestivum; settings: rated 4-5 weeks after treatment
Outline: (§3)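 Seeds planted in potting soil cups and sprayed preemergence with aqueous acetone compound solution. Greenhouse-grown; rated 4–5 weeks after treatment on a 0-9 visual scale (stand, vigor, malformation, size, chlorosis, appearance) versus control.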

[9] = system: GLXMAW (Soybean, Williams); assay: Postemergence herbicidal evaluation; format: in vivo, Glycine max, (L.) Merr. cv Williams; settings: for GLXMAW herbicidal rating: postemergence
Outline: as §1

ORYSAT (Rice, Tebonnet) [10] = assay: Flooded paddy, post-transplant rice tolerance; format: in vivo, Oryza sativa, (L.) Tebonnet; settings: flooded paddy, post-transplant rice, rated 3-4 weeks after treatment, 0-9 rating scale
Outline: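 Ten-day-old seedlings, 2/pot, silt loam; flood kept 1.5–3 cm over soil; herbicide applied post-transplant; greenhouse; score 0–9 visual vs control.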

[11] = system: IPOHE (Ipomoea hederacea); assay: Preemergence herbicidal evaluation; format: in vivo, (L.) Jacq.; settings: rated 4-5 weeks after treatment
[12] = system: CHEAL (Chenopodium album); assay: Preemergence herbicidal evaluation; format: in vivo, L.; settings: rated 4-5 weeks after treatment
Outline: as §3

[13] = system: CASOB (Cassia obtusifolia); assay: Preemergence herbicidal evaluation; format: in vivo, L.; settings: rated 4-5 weeks after treatment
Outline: as §3

[14] = system: AMBEL (Ambrosia artemisifolia); assay: Preemergence herbicidal evaluation; format: in vivo, L.; settings: rated 4-5 weeks after treatment
Outline: as §3

ZEAMX (Corn, Field) = assay: Preemergence herbicidal evaluation; format: in vivo, Zea mays, L.; settings: rated 4-5 weeks after treatment
CYPIR (Cyperus iria) = assay: Flooded paddy, preemergence weed control; format: in vivo; settings: rated 3-4 weeks after treatment, 0-9 rating scale
Outline: as §2

SETVI (Setaria viridis) = assay: Preemergence herbicidal evaluation; format: in vivo, (L.) Beau; settings: rated 4-5 weeks after treatment
Outline: as §3

[15] = system: ECHCG (Echinochloa crus-galli); assay: Preemergence herbicidal evaluation; format: in vivo, (L.) Beau; settings: rated 4-5 weeks after treatment
Outline: as §3

[16] = system: ABUTH (Abutilon theophrasti); assay: Postemergence herbicidal evaluation; format: in vivo, Medic.; settings: for ABUTH herbicidal rating: postemergence
Outline: as §1

[17] = system: ABUTH (Abutilon theophrasti); assay: Preemergence herbicidal evaluation; format: in vivo, Medic.; settings: rated 4-5 weeks after treatment

## Cc1sccc1-c1nsc2ccc(-n3c(=O)cc(C(F)(F)F)n(C)c3=O)cc12 [Compound 68, 2,4(1H,3H)-pyrimidinedione, 1-methyl-3-[3-(2-methyl-3-thienyl)-1,2-benzisothiazol-5-yl]-6-(trifluoromethyl)-]
[1]; rate 0.0320 kg/ha
  IPOHE herbicidal rating: 9.0
[1]; rate 0.0620 kg/ha
  IPOHE herbicidal rating: 9.0
[2]; rate 0.0320 kg/ha
  CHEAL herbicidal rating: 9.0
[2]; rate 0.0620 kg/ha
  CHEAL herbicidal rating: 9.0
[3]; rate 0.0320 kg/ha
  CASOB herbicidal rating: 5.0
[3]; rate 0.0620 kg/ha
  CASOB herbicidal rating: 6.0
[4]; rate 0.0320 kg/ha
  AMBEL herbicidal rating: 9.0
[4]; rate 0.0620 kg/ha
  AMBEL herbicidal rating: 9.0
ORYSAT (Rice, Tebonnet) [5]; rate 0.0320 kg/ha
  ORYSAT herbicidal rating: 4.0
ORYSAT (Rice, Tebonnet) [5]; rate 0.0620 kg/ha
  ORYSAT herbicidal rating: 5.0
[6]; Rate 0.0620 kg/ha
  Preemergence herbicidal rating GLXMAW: 1.5
[6]; Rate 0.1250 kg/ha
  Preemergence herbicidal rating GLXMAW: 3.0
[6]; Rate 0.2500 kg/ha
  Preemergence herbicidal rating GLXMAW: 7.5
[7]; rate 0.0080 kg/ha
  herbicidal rating, MOOVA: 7.0
[7]; rate 0.0320 kg/ha
  herbicidal rating, MOOVA: 9.0
[7]; rate 0.1250 kg/ha
  herbicidal rating, MOOVA: 9.0
[8]; Rate 0.0620 kg/ha
  Preemergence herbicidal rating TRZAWR: 2.0
[8]; Rate 0.1250 kg/ha
  Preemergence herbicidal rating TRZAWR: 5.0
[8]; Rate 0.2500 kg/ha
  Preemergence herbicidal rating TRZAWR: 7.0
[9]; rate 0.0320 kg/ha
  GLXMAW herbicidal rating: 6.5
[9]; rate 0.0620 kg/ha
  GLXMAW herbicidal rating: 7.0
ORYSAT (Rice, Tebonnet) [10]; rate 0.0080 kg/ha
  herbicidal rating, ORYSAT (rice tolerance): 1.5
ORYSAT (Rice, Tebonnet) [10]; rate 0.0320 kg/ha
  herbicidal rating, ORYSAT (rice tolerance): 2.5
ORYSAT (Rice, Tebonnet) [10]; rate 0.1250 kg/ha
  herbicidal rating, ORYSAT (rice tolerance): 3.5
[11]; Rate 0.0620 kg/ha
  Preemergence herbicidal rating IPOHE: 1.5
[11]; Rate 0.1250 kg/ha
  Preemergence herbicidal rating IPOHE: 3.0
[11]; Rate 0.2500 kg/ha
  Preemergence herbicidal rating IPOHE: 4.5
[12]; Rate 0.0620 kg/ha
  Preemergence herbicidal rating CHEAL: 9.0
[12]; Rate 0.1250 kg/ha
  Preemergence herbicidal rating CHEAL: 9.0
[12]; Rate 0.2500 kg/ha
  Preemergence herbicidal rating CHEAL: 9.0
[13]; Rate 0.0620 kg/ha
  Preemergence herbicidal rating CASOB: 0.5
[13]; Rate 0.1250 kg/ha
  Preemergence herbicidal rating CASOB: 3.0
[13]; Rate 0.2500 kg/ha
  Preemergence herbicidal rating CASOB: 5.5
[14]; Rate 0.0620 kg/ha
  Preemergence herbicidal rating AMBEL: 3.5
[14]; Rate 0.1250 kg/ha
  Preemergence herbicidal rating AMBEL: 5.0
[14]; Rate 0.2500 kg/ha
  Preemergence herbicidal rating AMBEL: 9.0
ZEAMX (Corn, Field); Rate 0.0620 kg/ha
  Preemergence herbicidal rating ZEAMX: 2.5
ZEAMX (Corn, Field); Rate 0.1250 kg/ha
  Preemergence herbicidal rating ZEAMX: 4.0
ZEAMX (Corn, Field); Rate 0.2500 kg/ha
  Preemergence herbicidal rating ZEAMX: 6.0
CYPIR (Cyperus iria); rate 0.0080 kg/ha
  herbicidal rating, CYPIR: 0.0
CYPIR (Cyperus iria); rate 0.0320 kg/ha
  herbicidal rating, CYPIR: 9.0
CYPIR (Cyperus iria); rate 0.1250 kg/ha
  herbicidal rating, CYPIR: 9.0
SETVI (Setaria viridis); Rate 0.0620 kg/ha
  Preemergence herbicidal rating SETVI: 9.0
SETVI (Setaria viridis); Rate 0.1250 kg/ha
  Preemergence herbicidal rating SETVI: 9.0
SETVI (Setaria viridis); Rate 0.2500 kg/ha
  Preemergence herbicidal rating SETVI: 9.0
[15]; Rate 0.0620 kg/ha
  Preemergence herbicidal rating ECHCG: 8.5
[15]; Rate 0.1250 kg/ha
  Preemergence herbicidal rating ECHCG: 9.0
[15]; Rate 0.2500 kg/ha
  Preemergence herbicidal rating ECHCG: 9.0
[16]; rate 0.0320 kg/ha
  ABUTH herbicidal rating: 9.0
[16]; rate 0.0620 kg/ha
  ABUTH herbicidal rating: 9.0
[17]; Rate 0.0620 kg/ha
  Preemergence herbicidal rating ABUTH: 8.5
[17]; Rate 0.1250 kg/ha
  Preemergence herbicidal rating ABUTH: 9.0
[17]; Rate 0.2500 kg/ha
  Preemergence herbicidal rating ABUTH: 9.0

## CCOc1cc(OCC)nc(-c2nsc3ccc(-n4c(=O)cc(C(F)(F)F)n(C)c4=O)cc23)n1 [Compound 43, 3-[3-(4,6-diethoxy-2-pyrimidinyl)-1,2-benzisothiazol-5-yl]-1-methyl-6-(trifluoromethyl)uracil]
[1]; rate 0.0320 kg/ha
  Postemergence herbicidal rating, IPOHE: 9.0
[1]; rate 0.0620 kg/ha
  Postemergence herbicidal rating, IPOHE: 9.0
[2]; rate 0.0320 kg/ha
  Postemergence herbicidal rating, CHEAL: 6.0
[2]; rate 0.0620 kg/ha
  Postemergence herbicidal rating, CHEAL: 9.0
[3]; rate 0.0320 kg/ha
  Postemergence herbicidal rating, CASOB: 2.0
[3]; rate 0.0620 kg/ha
  Postemergence herbicidal rating, CASOB: 3.0
[4]; rate 0.0320 kg/ha
  Postemergence herbicidal rating, AMBEL: 9.0
[4]; rate 0.0620 kg/ha
  Postemergence herbicidal rating, AMBEL: 9.0
ORYSAT (Rice, Tebonnet) [5]; rate 0.0320 kg/ha
  Postemergence herbicidal rating, ORYSAT: 2.0
ORYSAT (Rice, Tebonnet) [5]; rate 0.0620 kg/ha
  Postemergence herbicidal rating, ORYSAT: 2.0
[6]; Rate 0.0620 kg/ha
  Preemergence herbicidal rating GLXMAW: 1.0
[6]; Rate 0.1250 kg/ha
  Preemergence herbicidal rating GLXMAW: 3.0
[6]; Rate 0.2500 kg/ha
  Preemergence herbicidal rating GLXMAW: 5.0
[7]; rate 0.0320 kg/ha
  herbicidal rating, MOOVA: 4.0
[7]; rate 0.1250 kg/ha
  herbicidal rating, MOOVA: 6.0
[8]; Rate 0.0620 kg/ha
  Preemergence herbicidal rating TRZAWR: 1.0
[8]; Rate 0.1250 kg/ha
  Preemergence herbicidal rating TRZAWR: 1.0
[8]; Rate 0.2500 kg/ha
  Preemergence herbicidal rating TRZAWR: 2.0
[9]; rate 0.0320 kg/ha
  Postemergence herbicidal rating, GLXMAW: 6.0
[9]; rate 0.0620 kg/ha
  Postemergence herbicidal rating, GLXMAW: 6.0
ORYSAT (Rice, Tebonnet) [10]; rate 0.0320 kg/ha
  herbicidal rating, ORYSAT (rice tolerance): 0.0
ORYSAT (Rice, Tebonnet) [10]; rate 0.1250 kg/ha
  herbicidal rating, ORYSAT (rice tolerance): 2.0
[11]; Rate 0.0620 kg/ha
  Preemergence herbicidal rating IPOHE: 0.0
[11]; Rate 0.1250 kg/ha
  Preemergence herbicidal rating IPOHE: 0.0
[11]; Rate 0.2500 kg/ha
  Preemergence herbicidal rating IPOHE: 2.0
[12]; Rate 0.0620 kg/ha
  Preemergence herbicidal rating CHEAL: 9.0
[12]; Rate 0.1250 kg/ha
  Preemergence herbicidal rating CHEAL: 9.0
[12]; Rate 0.2500 kg/ha
  Preemergence herbicidal rating CHEAL: 9.0
[13]; Rate 0.0620 kg/ha
  Preemergence herbicidal rating CASOB: 0.0
[13]; Rate 0.1250 kg/ha
  Preemergence herbicidal rating CASOB: 0.0
[13]; Rate 0.2500 kg/ha
  Preemergence herbicidal rating CASOB: 1.0
[14]; Rate 0.0620 kg/ha
  Preemergence herbicidal rating AMBEL: 0.0
[14]; Rate 0.1250 kg/ha
  Preemergence herbicidal rating AMBEL: 1.0
[14]; Rate 0.2500 kg/ha
  Preemergence herbicidal rating AMBEL: 7.0
ZEAMX (Corn, Field); Rate 0.0620 kg/ha
  Preemergence herbicidal rating ZEAMX: 2.0
ZEAMX (Corn, Field); Rate 0.1250 kg/ha
  Preemergence herbicidal rating ZEAMX: 2.0
ZEAMX (Corn, Field); Rate 0.2500 kg/ha
  Preemergence herbicidal rating ZEAMX: 6.0
CYPIR (Cyperus iria); rate 0.0320 kg/ha
  herbicidal rating, CYPIR: 0.0
CYPIR (Cyperus iria); rate 0.1250 kg/ha
  herbicidal rating, CYPIR: 5.0
SETVI (Setaria viridis); Rate 0.0620 kg/ha
  Preemergence herbicidal rating SETVI: 9.0
SETVI (Setaria viridis); Rate 0.1250 kg/ha
  Preemergence herbicidal rating SETVI: 9.0
SETVI (Setaria viridis); Rate 0.2500 kg/ha
  Preemergence herbicidal rating SETVI: 9.0
[15]; Rate 0.0620 kg/ha
  Preemergence herbicidal rating ECHCG: 0.0
[15]; Rate 0.1250 kg/ha
  Preemergence herbicidal rating ECHCG: 0.0
[15]; Rate 0.2500 kg/ha
  Preemergence herbicidal rating ECHCG: 3.0
[16]; rate 0.0320 kg/ha
  Postemergence herbicidal rating, ABUTH: 9.0
[16]; rate 0.0620 kg/ha
  Postemergence herbicidal rating, ABUTH: 9.0
[17]; Rate 0.0620 kg/ha
  Preemergence herbicidal rating ABUTH: 4.0
[17]; Rate 0.1250 kg/ha
  Preemergence herbicidal rating ABUTH: 9.0
[17]; Rate 0.2500 kg/ha
  Preemergence herbicidal rating ABUTH: 9.0
